Tested on: 935938-334-R-J1-PDC spheroids with HUVEC/MSC, viability
Assay: Anticancer human tumor 935938-334-R-J1-PDC patient-derived small intestine adenocarcinoma cell line growth inhibition [PI3K]
Details: for IC50: curve of first compound; for viability, T/C: stronger effect = lower value
Procedure, shortened: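 Spheroid viability read-out. Co-cultures contained the tumor line plus HUVEC and human MSCs. Each agent was paired with a PI3K inhibitor (inavolisib, alpelisib, duvelisib, copanlisib) across half-log dilutions starting at clinical Cmax, or at 10 microM when Cmax was unknown.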

[1] = second compound 0.0316 µM, first compound 0.0316 µM
[2] = second compound 0.0316 µM, first compound 0.1 µM
[3] = second compound 0.0316 µM, first compound 0.316 µM
[4] = second compound 0.0316 µM, first compound 1 µM
[5] = second compound 0.0316 µM, first compound 3.16 µM
[6] = second compound 0.0316 µM, first compound 10 µM
[7] = second compound 0.1 µM, first compound 0.0316 µM
[8] = second compound 0.1 µM, first compound 0.1 µM
[9] = second compound 0.1 µM, first compound 0.316 µM
[10] = second compound 0.1 µM, first compound 1 µM
[11] = second compound 0.1 µM, first compound 3.16 µM
[12] = second compound 0.1 µM, first compound 10 µM
[13] = second compound 0.316 µM, first compound 0.0316 µM
[14] = second compound 0.316 µM, first compound 0.1 µM
[15] = second compound 0.316 µM, first compound 0.316 µM
[16] = second compound 0.316 µM, first compound 1 µM
[17] = second compound 0.316 µM, first compound 3.16 µM
[18] = second compound 0.316 µM, first compound 10 µM
[19] = second compound 1 µM, first compound 0.0316 µM
[20] = second compound 1 µM, first compound 0.1 µM
[21] = second compound 1 µM, first compound 0.316 µM
[22] = second compound 1 µM, first compound 1 µM
[23] = second compound 1 µM, first compound 3.16 µM
[24] = second compound 1 µM, first compound 10 µM
[25] = second compound 3.16 µM, first compound 0.0316 µM
[26] = second compound 3.16 µM, first compound 0.1 µM
[27] = second compound 3.16 µM, first compound 0.316 µM
[28] = second compound 3.16 µM, first compound 1 µM
[29] = second compound 3.16 µM, first compound 3.16 µM
[30] = second compound 3.16 µM, first compound 10 µM
[31] = second compound 10 µM, first compound 0.0316 µM
[32] = second compound 10 µM, first compound 0.1 µM
[33] = second compound 10 µM, first compound 0.316 µM
[34] = second compound 10 µM, first compound 1 µM
[35] = second compound 10 µM, first compound 3.16 µM
[36] = second compound 10 µM, first compound 10 µM
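Note: compound exposure lasted seven days before viability was read.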
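Throughout, for viability, T/C: percent of vehicle DMSO treated spheroid viability so 100% = untreated.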

SMILES: CC(Cn1ccc(-c2ccc(C#N)c(Cl)c2)n1)NC(=O)c1cc(C(C)O)[nH]n1 (stereo unspecified) + Cc1nc(NC(=O)N2CCCC2C(N)=O)sc1-c1ccnc(C(C)(C)C(F)(F)F)c1
- IC50 (second compound 0.0316 µM): > 10 µM
- IC50 (second compound 0.1 µM): > 10 µM
- IC50 (second compound 0.316 µM): > 10 µM
- IC50 (second compound 1 µM): > 10 µM
- IC50 (second compound 3.16 µM): 0.4 µM
- IC50 (second compound 10 µM): < 0.0316 µM
- viability, T/C [1]: 81.8%
- viability, T/C [2]: 101%
- viability, T/C [3]: 89.8%
- viability, T/C [4]: 91%
- viability, T/C [5]: 104%
- viability, T/C [6]: 78.3%
- viability, T/C [7]: 109%
- viability, T/C [8]: 72.3%
- viability, T/C [9]: 99.4%
- viability, T/C [10]: 77.2%
- viability, T/C [11]: 97.6%
- viability, T/C [12]: 75.6%
- viability, T/C [13]: 81.8%
- viability, T/C [14]: 81.6%
- viability, T/C [15]: 58.5%
- viability, T/C [16]: 82%
- viability, T/C [17]: 75.5%
- viability, T/C [18]: 84.8%
- viability, T/C [19]: 79.2%
- viability, T/C [20]: 79.6%
- viability, T/C [21]: 62.3%
- viability, T/C [22]: 65%
- viability, T/C [23]: 64.6%
- viability, T/C [24]: 47.7%
- viability, T/C [25]: 62.7%
- viability, T/C [26]: 61%
- viability, T/C [27]: 50.3%
- viability, T/C [28]: 44.3%
- viability, T/C [29]: 59.4%
- viability, T/C [30]: 43.9%
- viability, T/C [31]: 46.3%
- viability, T/C [32]: 42.6%
- viability, T/C [33]: 52.3%
- viability, T/C [34]: 51.8%
- viability, T/C [35]: 44.3%
- viability, T/C [36]: 40%

SMILES: CC1(C)CCC(Nc2ncc(C(F)(F)F)c(-c3c[nH]c4c(P(C)(C)=O)c(C#N)ccc34)n2)CN1 (stereo unspecified) + Cc1nc(NC(=O)N2CCCC2C(N)=O)sc1-c1ccnc(C(C)(C)C(F)(F)F)c1
- IC50 (second compound 0.0316 µM): < 0.0316 µM
- IC50 (second compound 0.1 µM): < 0.0316 µM
- IC50 (second compound 0.316 µM): < 0.0316 µM
- IC50 (second compound 1 µM): < 0.0316 µM
- IC50 (second compound 3.16 µM): < 0.0316 µM
- IC50 (second compound 10 µM): < 0.0316 µM
- viability, T/C [1]: 31.4%
- viability, T/C [2]: 24.9%
- viability, T/C [3]: 39.4%
- viability, T/C [4]: 33.7%
- viability, T/C [5]: 30.8%
- viability, T/C [6]: 5.69%
- viability, T/C [7]: 33.6%
- viability, T/C [8]: 34.4%
- viability, T/C [9]: 31.6%
- viability, T/C [10]: 32.3%
- viability, T/C [11]: 36.3%
- viability, T/C [12]: 6.9%
- viability, T/C [13]: 34.6%
- viability, T/C [14]: 34.5%
- viability, T/C [15]: 26.2%
- viability, T/C [16]: 29.6%
- viability, T/C [17]: 27.6%
- viability, T/C [18]: 6.74%
- viability, T/C [19]: 38.3%
- viability, T/C [20]: 26.2%
- viability, T/C [21]: 23.7%
- viability, T/C [22]: 20.8%
- viability, T/C [23]: 23.7%
- viability, T/C [24]: 4.15%
- viability, T/C [25]: 24.6%
- viability, T/C [26]: 22.6%
- viability, T/C [27]: 24.5%
- viability, T/C [28]: 25.2%
- viability, T/C [29]: 25.2%
- viability, T/C [30]: 3.91%
- viability, T/C [31]: 25.6%
- viability, T/C [32]: 23.8%
- viability, T/C [33]: 26.2%
- viability, T/C [34]: 24.7%
- viability, T/C [35]: 19.9%
- viability, T/C [36]: 2.1%

SMILES: Cn1nccc1Nc1nccc(-c2ccn(C(CO)c3ccc(Cl)c(F)c3)c(=O)c2)n1 (stereo unspecified) + Cc1nc(NC(=O)N2CCCC2C(N)=O)sc1-c1ccnc(C(C)(C)C(F)(F)F)c1
- IC50 (second compound 0.0316 µM): 0.805 µM
- IC50 (second compound 0.1 µM): 0.973 µM
- IC50 (second compound 0.316 µM): 0.315 µM
- IC50 (second compound 1 µM): 0.211 µM
- IC50 (second compound 3.16 µM): 0.0468 µM
- IC50 (second compound 10 µM): < 0.0316 µM
- viability, T/C [1]: 92.1%
- viability, T/C [2]: 80.5%
- viability, T/C [3]: 61%
- viability, T/C [4]: 48.5%
- viability, T/C [5]: 36.2%
- viability, T/C [6]: 31.6%
- viability, T/C [7]: 100%
- viability, T/C [8]: 73.5%
- viability, T/C [9]: 62%
- viability, T/C [10]: 53.4%
- viability, T/C [11]: 38.6%
- viability, T/C [12]: 25.1%
- viability, T/C [13]: 94.1%
- viability, T/C [14]: 71%
- viability, T/C [15]: 48.2%
- viability, T/C [16]: 39.3%
- viability, T/C [17]: 25%
- viability, T/C [18]: 25.6%
- viability, T/C [19]: 62.2%
- viability, T/C [20]: 75.7%
- viability, T/C [21]: 39.7%
- viability, T/C [22]: 26%
- viability, T/C [23]: 25.8%
- viability, T/C [24]: 19.2%
- viability, T/C [25]: 50.6%
- viability, T/C [26]: 51.3%
- viability, T/C [27]: 33.1%
- viability, T/C [28]: 37.4%
- viability, T/C [29]: 20.8%
- viability, T/C [30]: 18.7%
- viability, T/C [31]: 43.9%
- viability, T/C [32]: 48%
- viability, T/C [33]: 28.6%
- viability, T/C [34]: 22.2%
- viability, T/C [35]: 20.8%
- viability, T/C [36]: 19.9%
